We go through 6 molecules from US11331302B2, “Transmucosal delivery of tocotrienol” (INVICTUS BIOTECHNOLOGY PTY LTD., priority 2012, dated 2022).

Series [1] deals with T1, alpha-tocopherol transport protein (a-TTP) (Rattus norvegicus, UniProt P41034).
T1 sequence (P41034 1-278): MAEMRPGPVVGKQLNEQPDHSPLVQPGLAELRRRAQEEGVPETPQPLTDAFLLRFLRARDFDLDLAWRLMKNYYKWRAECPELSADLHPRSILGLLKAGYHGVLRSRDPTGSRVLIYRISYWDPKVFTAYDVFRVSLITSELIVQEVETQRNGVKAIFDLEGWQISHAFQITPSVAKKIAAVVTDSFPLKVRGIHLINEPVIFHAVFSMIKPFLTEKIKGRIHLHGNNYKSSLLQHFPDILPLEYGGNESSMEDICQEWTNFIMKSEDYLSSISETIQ
The conditions noted are these: alpha-tocopherol = 100%; cited from earlier work.

For series [2] the following is noted: in vivo.
Procedure: FIG. 9: Appearance of blood plasma concentrations using gel and tablet sublingual formulations of a 40 mg dose of tocotrienols. Delta tocotrienol (delta-T3) and gamma tocotrienol (gamma-T3) levels were measured in plasma at time points up to 180 minutes from administration of the gel or tablet (tab) formulation.
A test was carried out in 2 subjects who administered 40 mg tocotrienols in 2 ml of gel sublingually. Blood samples were collected from a forearm venous catheter before administration and at 15, 60, and 180 minutes after administration.
Series [3] in a line: Plasma tocotrienol levels after sublingual tablets. The series is classed as in vivo, human. The conditions noted are these: 4×10 mg tablets sublingually, 2 subjects. Here is the method:
A 220 mg sublingual tablet formulation was prepared containing a dose of 10 mg tocotrienol comprised of the actives: delta-tocotrienol 9 mg, gamma tocotrienol 1 mg; and the following excipients: dextrose, mannitol, marine gelatin, 1-leucine, 1-arginine, pre-gel starch, PEG-200, propylene glycol, talc, silica dioxide, magnesium stearate, carotenoids.
A test was carried out on 2 subjects who dissolved 4×10 mg tablets sublingually.

The conditions of series [4]: humans; same dose of tocotrienol preparations; cited from earlier work.
For series [5] the following is noted: animal study, estimated; cited from earlier work.

Turning to `Cc1c(C)c2c(c(C)c1O)CC[C@@](C)(CCC[C@H](C)CCC[C@H](C)CCCC(C)C)O2` [alpha-tocopherol], in series [1], the “relative affinity towards a-TTP” value is reported as 100%.

With `CC(C)=CCC/C(C)=C/CC/C(C)=C/CC[C@]1(C)CCc2cc(O)cc(C)c2O1` [delta tocotrienol], the “ratio of delta to gamma tocotrienol levels in plasma” value in series [2] was 9:1.

In the case of `Cc1cc(O)cc2c1O[C@](C)(CCC[C@H](C)CCC[C@H](C)CCCC(C)C)CC2` [delta-tocopherol], the “relative affinity towards a-TTP” value in series [1] is on record as 2%.

As for `CC(C)=CCC/C(C)=C/CC/C(C)=C/CC[C@]1(C)CCc2cc(O)c(C)c(C)c2O1` [gamma tocotrienol], the plasma level in series [3] (20 minute point) stood at 800 nM; in series [3] (1 h), 400 nM; in series [3] (2 h), 190 nM; in series [3] (3 h) it was 70 nM. Also, the “relative affinity towards a-TTP” value in series [1] is 9%.

Regarding alpha-tocotrienol, the “relative affinity towards a-TTP” value in series [1] is on record as 12%. Further, in series [4], the “plasma concentration, fold higher than that of gamma-tocotrienol” value is 2 fold and the “plasma concentration, times higher than delta-tocotrienol” value was roughly 10 times.

For tocopherol, in series [5], the oral bioavailability is recorded as 36%.
